Source: patent US10160785B2, “Antimicrobial peptides and their use for the treatment of topical infections” (priority 2015, dated 2018)

Tests used:
human red blood cells = assay: in vitro
Summary of the method: (§1)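 Peptides at 2-200 μmol.l^−1 incubated 1 h at 37 °C with 5% v/v human erythrocyte suspension in physiological solution. Released haemoglobin in supernatant read at 540 nm against buffer (0%) and 0.2% Triton X100 (100%) lysis controls. LC50 is the peptide concentration lysing 50% of cells.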

Bacillus subtilis = settings: Bacillus subtilis; 37° C., 20 h
Method: (§2) Gram-positive bacteria (Micrococcus luteus, Bacillus subtilis, Staphylococcus aureus, Staphylococcus epidermidis and Enterococcus faecalis), Gram-negative bacteria (Escherichia coli and Pseudomonas aeruginosa) and the yeast (Candida albicans) were grown to exponential phase and then were diluted with fresh medium. BHI medium (Oxoid, Great Britain) was used for Enterococcus faecalis; YPD medium containing yeast extract peptone and glucose was used for Candida albicans and LB medium (Sigma, Czech Republic) was used for the remaining microorganisms. Then the microorganisms were added to the solutions of the tested antimicrobial peptides in LB medium in multi-well plates. The final peptide concentration it the wells was in the range of 0.1 to 100 μmol.l^−1. That was made by twofold serial dilution from the peptide stock solution (1 mmol.l^−1). The plates were incubated at 37° C. for 20 h while being continuously shaken in a Bioscreen C (Oy Growth Curves AB Ltd., Helsinki, Finland). Absorbance was measured at 540 nm every 15 min. Antimicrobial activity (Table 2) was determined as a quantitative minimum inhibitory concentration (MIC) by observing bacterial growth in the presence of different concentrations of tested peptides. In the experiments ca 10^5 CFU of bacteria or candida per well were routinely used.
(§3) Multiresistant clinical isolates of bacteria were obtained from University Hospital in Motol, Prague, Czech Republic and from Liberec Regional Hospital, Czech Republic. Methicillin resistant Staphylococcus aureus (MRSA) 6271 and Pseudomonas aeruginosa 5482 were from the Czech National Collection of Type Cultures, the National Institute of Public Health, Prague, Czech Republic. Other bacteria were from the Czech Collection of Microorganisms, Brno, Czech Republic. Candida albicans came from the Faculty of Medicine, Palacky University, Olomouc, Czech Republic.

Candida albicans Olomouc = settings: Candida albicans Olomouc; YPD medium; 37° C., 20 h (Example 2)
Method: as §2, §3

[1] = tested on: Enterococcus faecalis Motol; settings: BHI medium, 37° C., 20 h
Method: as §2, §3

Escherichia coli = settings: 37° C., 20 h
Method: as §2, §3

[2] = tested on: Methicillin resistant Staphylococcus aureus (MRSA) 6271; settings: 37° C., 20 h
Method: as §2, §3

Micrococcus luteus = settings: Micrococcus luteus; 37° C., 20 h
Method: as §2, §3

[3] = tested on: Pseudomonas aeruginosa 5482; settings: 37° C., 20 h
Method: as §2, §3

[4] = tested on: Pseudomonas aeruginosa Liberec; settings: Pseudomonas aeruginosa Liberec; 37° C., 20 h
Method: as §2, §3

[5] = tested on: Staphylococcus aureus Liberec; settings: Staphylococcus aureus Liberec clinical isolate; 37° C., 20 h
Method: as §2, §3

[6] = tested on: Staphylococcus aureus Motol; settings: Staphylococcus aureus Motol clinical isolate; 37° C., 20 h
Method: as §2, §3

[7] = tested on: Staphylococcus epidermidis Motol; settings: 37° C., 20 h
Method: as §2, §3

in vitro = settings: human
Summary of the method: as §1

[8] = tested on: Candida albicans (Olomouc); assay: microbe, parasite or virus in culture; type: cell-based; settings: RPMI broth microdilution, 35° C., 48 hours, visual
Summary of the method: (§4)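 Five colonies from 24 h cultures were suspended in saline to OD600 0.18 and diluted 1:50 and then 1:20 into RPMI 1640 containing MOPS. This inoculum was mixed 1:1 with peptide dilutions of 0.625–160 μmol.l^−1. After 48 h at 35 °C, the MIC was scored by eye as the first well lacking growth.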

[9] = tested on: Candida albicans ATCC MYA-2876; assay: microbe, parasite or virus in culture; type: cell-based; settings: RPMI broth microdilution, 35° C., 48 hours, visual
Summary of the method: as §4

[10] = tested on: Candida dubliniensis ATCC MYA-646; assay: microbe, parasite or virus in culture; type: cell-based; settings: RPMI broth microdilution, 35° C., 48 hours, visual
Summary of the method: as §4

[11] = tested on: Candida glabrata ATCC 2001; assay: microbe, parasite or virus in culture; type: cell-based; settings: RPMI broth microdilution, 35° C., 48 hours, visual
Summary of the method: as §4

Candida glabrata DSY 565 = assay: microbe, parasite or virus in culture; type: cell-based; settings: RPMI broth microdilution, 35° C., 48 hours, visual
Summary of the method: as §4

Candida krusei ATCC 6258 = assay: microbe, parasite or virus in culture; type: cell-based; settings: RPMI broth microdilution, 35° C., 48 hours, visual
Summary of the method: as §4

[12] = tested on: Candida tropicalis ATCC 750; assay: microbe, parasite or virus in culture; type: cell-based; settings: RPMI broth microdilution, 35° C., 48 hours, visual
Summary of the method: as §4

P. aeruginosa (Liberec) = assay: Synergistic effect of peptides with antibiotics, FIC index; type: cell-based, Pseudomonas aeruginosa; settings: FIC <0.5 synergism, 0.5-2 additive, >2 antagonism, averages of three experiments; for FIC indexes (fractional inhibitory concentration) Combination with RIF against P. aeruginosa: peptide combined with rifampicin; for FIC indexes (fractional inhibitory concentration) Combination with TET against P. aeruginosa: peptide combined with tetracycline
Method: (§5) MICs values of various combinations of two fold serial dilutions of peptides and antibiotics were determined using the same methodology as in the case of antimicrobial activity determination (Example 2). To consider the type of the final effect, FIC indexes (fractional inhibitory concentration) were used and calculated as follows:
(§6) [formula] where MICPC and MICAC are the MICs of the peptide and antibiotic in combination, respectively, and MICP and MICA are the MICs of the peptide and antibiotic tested alone, respectively. FIC<0.5 were considered as synergy, 0.5≤FIC≤2 as addition effect, and FIC>2 as antagonism.

S. aureus (Liberec) = assay: as above; type: cell-based, Staphylococcus aureus; settings: peptide combined with amoxicillin; FIC <0.5 synergism, 0.5-2 additive, >2 antagonism; averages of three experiments
Method: as §5, §6

[13] = tested on: S. aureus (Liberec) biofilm; assay: Bacterial biofilm, remaining metabolic activity (MTT); type: cell-based, Staphylococcus aureus; settings: remaining metabolic activity of biofilm, 20 h
Method: Inoculum of S. aureus (Liberec) or P. aeruginosa (Liberec) cultivated overnight in BHI medium was diluted with fresh BHI medium containing 1% glucose to a final concentration to be ca. 10^8 CFU/ml. Then this was pipetted (100 μl) to 96-multiwell polystyrene plate which was incubated at 37° C. under rotary shaking (300 RPM) for 24 h. Medium without bacteria in the wells was used as a negative control. Supernatant from each well was drained and the biofilm formed on the bottom and on the walls of the wells was cautiously washed three times by sterile physiological solution (300 μl). The peptides tested in the concentrations of 1-128 μmol.l^−1 were prepared by twofold serial dilution of their stock solution (1 mmol.l^−1) in fresh BHI medium and then pipetted (100 μl) to the wells with formed biofilms. The biofilms covered by BHI medium without peptide were used as a positive control. The plates were then incubated for 20 h as described above. After that the liquid was drained out and wells were washed twice with sterile physiological solution.
The metabolic activity of surviving bacterial cells in the biofilm was determined by staining with MTT (3-(4,5-dimethylthiazol-2-yl)-2,5-diphenyl-2H-tetrazolium bromide) as follows: The mixture of BHI medium (100 μl) and 10 μl of the stock solution of MTT (5 mg/ml in physiological solution) was added to each well and the plate was incubated 40 min at 37° C. The liquid was drained out and the insoluble formazan crystals formed by reduction inside the biofilm were dissolved with dimethyl sulphoxide (100 μl). The intensity of staining in each well was measured as absorbance at 540 nm on a Tecan Infinite M200 Pro reader (Tecan GmbH, Austria). Remaining activity of surviving cells inside the biofilm was expressed for each well in percentage according to the following equation:
[formula] where A is the absorbance of the tested compound, ABL is the absorbance of the negative control, and AC is the absorbance of control biofilm.

Row | Substance | Antimicrobial activity MIC B. s. (Bacillus subtilis) [µM] | Antimicrobial activity MIC C. a. Olomouc (Candida albicans Olomouc) [µM] | Antimicrobial activity MIC E. f. Motol [1] [µM] | Antimicrobial activity MIC E. c. (Escherichia coli) [µM] | Antimicrobial activity MIC S. a. 6271 [2] [µM] | Antimicrobial activity MIC M. l. (Micrococcus luteus) [µM] | Antimicrobial activity MIC P. a. 5482 [3] [µM] | Antimicrobial activity MIC P. a. Liberec [4] [µM] | Antimicrobial activity MIC S. a. Liberec [5] [µM] | Antimicrobial activity MIC S. a. Motol [6] [µM] | Antimicrobial activity MIC S. e. Motol [7] [µM] | HC50 at 1 h (in vitro) [µM] | Antifungal activity MIC C. albicans Olomouc [8] [µM] | Antifungal activity MIC C. albicans ATCC MYA-2876 [9] [µM] | Antifungal activity MIC C. dubliniensis ATCC MYA-646 [10] [µM] | Antifungal activity MIC C. glabrata ATCC 2001 [11] [µM] | Antifungal activity MIC C. glabrata DSY 565 (Candida glabrata DSY 565) [µM] | Antifungal activity MIC C. krusei ATCC 6258 (Candida krusei ATCC 6258) [µM] | Antifungal activity MIC C. tropicalis ATCC 750 [12] [µM] | FIC indexes (fractional inhibitory concentration) Combination with RIF against P. aeruginosa (P. aeruginosa (Liberec)) | other results
1 | H-GIMSSLMKKLAAHIAK-NH2 [hylanine, reference compound] | – | – | – | – | – | – | – | – | – | – | – | – | – | – | – | – | – | – | – | – | toxicity against eukaryotic cells measured as hemolytic activity (human red blood cells; in words): very low
2 | H-GIMSSLMKKLKKIIKK-NH2 [VII] | 2.5 | 6.3 | >100 | 22.0 | 54.0 | 1.9 | 7.1 | 9.9 | 18.0 | 64.7 | 1.7 | > 400 | 17.0 | 22.0 | 20.0 | 40.0 | 97.8 | 10.0 | 1.1 | 0.365 | FIC indexes (fractional inhibitory concentration) Combination with TET against P. aeruginosa (P. aeruginosa (Liberec)): 0.625; FIC indexes (fractional inhibitory concentration) Combination with AMX against S. aureus (S. aureus (Liberec)): 0.167
3 | H-GIWSSLLKKLKKIIAK-NH2 [XIV] | 0.8 | 16.0 | 46.0 | 1.6 | 20.0 | 0.8 | 6.3 | 21.0 | 4.6 | 5.3 | 1.5 | 165 | 8.2 | 10.0 | 9.0 | 19.1 | 48.0 | 5.2 | 1.2 | 0.271 | FIC indexes (fractional inhibitory concentration) Combination with TET against P. aeruginosa (P. aeruginosa (Liberec)): 0.354; FIC indexes (fractional inhibitory concentration) Combination with AMX against S. aureus (S. aureus (Liberec)): 0.396
4 | H-Gly-Ile-Leu-Ser-Ser-Leu-Trp-Lys-Lys-Leu-Lys-Lys-Ile-Ile-Ala-Lys-NH2 (H-GILSSLWKKLKKIIAK-NH2; also: D-amino acids (positions not given here)) [XIX] | 2.0 | 26.0 | 6.5 | 13.0 | 6.3 | – | 6.3 | 8.5 | 3.2 | 3.2 | 1.6 | – | – | – | – | – | – | – | – | – | CC50 (human red blood cells; read-out: Hemolytic activity LC50, lysis of 50% of human erythrocytes, 1 h at 37° C.): > 200 µM; Metabolic activity (%) S. aureus (Liberec) ([13]; peptide concentration 8 μmol · l^−1): 72.8%; Metabolic activity (%) S. aureus (Liberec) ([13]; peptide concentration 16 μmol · l^−1): 2.8%; Metabolic activity (%) S. aureus (Liberec) ([13]; peptide concentration 32 μmol · l^−1): 2.3%; Metabolic activity (%) S. aureus (Liberec) ([13]; peptide concentration 64 μmol · l^−1): 2.3%; Metabolic activity (%) S. aureus (Liberec) ([13]; peptide concentration 128 μmol · l^−1): 1.7%
5 | H-KILSSLLKKLKKIIAK-NH2 [VI] | 1.3 | 25.3 | 32.5 | 16.0 | 32.0 | 1.0 | 5.0 | 16.0 | 5.5 | 10.0 | 1.4 | 364 | 12.0 | 20.0 | 12.0 | 28.0 | 71.1 | 4.8 | 0.9 | 0.260 | FIC indexes (fractional inhibitory concentration) Combination with TET against P. aeruginosa (P. aeruginosa (Liberec)): 0.708; FIC indexes (fractional inhibitory concentration) Combination with AMX against S. aureus (S. aureus (Liberec)): 0.292
